Tests used:
DNA = details: main Dau containing metabolite; cited from earlier work
[1] = tested on: HT-1080 (human fibrosarcoma) cells, CD13 positive; test: In vitro cytostatic effect (6 h treatment + 66 h drug-free); assay type: cell-based; details: HT-1080, read-out: IC50, 6 h, HT1080 (cytostatic effect)
Description: (§1) At 72 h, supernatant was removed from the cells, and viability was assessed by the PrestoBlue® reagent (Life Technologies), which was diluted in PBS to reach the concentration given in the manufacturer’s instruction. Curves were fitted by GraphPad Prism 5 software using the sigmoidal dose–response model (https://www.graphpad.com/scientific-software/prism/). The conjugates were serially diluted, 9 concentrations were measured in triplicates. […] IC50 values were averaged; statistical significance was calculated using unpaired t-tests. The cytostatic/cytotoxic effect of the cyclic NGR peptide-Dau conjugates was examined in vitro on CD13-positive HT-1080 human fibrosarcoma cells and on CD13-negative HT-29 human colon adenocarcinoma cells. High expression of CD13 in HT-1080 cells was confirmed by FACS, using the CD13-specific OKM13 antibody. […] We compared the toxicity of the conjugates and the free drug molecules. It is important to note that the free drug enters the cell via diffusion, while the conjugates are taken up by a receptor-mediated pathway, which is followed by the intracellular release of the drug molecule or its active metabolite. […] In the second experiment the conjugates were added to the cells for 72 h (cytotoxic effect).

[2] = tested on: HT-29 (human colon adenocarcinoma) cells, CD13 negative; test: as above; assay type: cell-based; details: HT-29, read-out: IC50, 6 h, HT-29 (cytostatic effect)
Description: as §1

[3] = tested on: HT-1080 (human fibrosarcoma) cells, CD13 positive; test: In vitro cytotoxicity (72 h treatment); assay type: cell-based; details: 72 h continuous treatment, PrestoBlue viability, 5000 cells/well, 9 concentrations in triplicates, IC50 averaged, tests carried out 3 times, read-out: IC50, 72 h, HT1080 (cytotoxic effect)
Description: as §1, with “In the case of cytotoxicity measurements, the drug containing medium was on the cells for the full period of the 72 h assay. At” for “At”

[4] = tested on: HT-29 (human colon adenocarcinoma) cells, CD13 negative; test: In vitro cytotoxicity (72 h treatment); assay type: cell-based; details: 72 h continuous treatment, PrestoBlue viability, 5000 cells/well, 9 concentrations in triplicates, IC50 averaged, tests carried out 3 times, read-out: IC50, 72 h, HT-29 (cytotoxic effect)
Description: as §1, with “In the case of cytotoxicity measurements, the drug containing medium was on the cells for the full period of the 72 h assay. At” for “At”

Row | SMILES | binding to DNA (DNA) | IC50 [1] [nM] | IC50 [2] [nM] | IC50 [3] [nM] | IC50 [4] [nM]
1 | COc1cccc2c1C(=O)c1c(O)c3c(c(O)c1C2=O)C(OC1CC(N)C(O)C(C)O1)CC(O)(C(C)=NOCC(=O)NCC(=O)O)C3 (stereo not drawn) [Dau = Aoa-Gly-OH] | binds efficiently to DNA | – | – | – | –
2 | COc1cccc2c1C(=O)c1c(O)c3c(c(O)c1C2=O)C[C@@](O)(C(C)=O)C[C@@H]3O[C@H]1C[C@H](N)[C@H](O)[C@H](C)O1 [Daunomycin, daunomycin] | – | 700 ± 300 | 700 ± 300 | 230 ± 100 | 150 ± 100

Source: publication PMC5456102, “NGR-peptide−drug conjugates with dual targeting properties” (PLoS ONE, 2017)
